# Values of other authors as cited in patent US20070003621A1, “Dosage forms for movement disorder treatment” (Spherics, Inc., priority 2005, published 2007).
# Conditions: doses of 400 mg per day
smiles,measurement,value
C[C@@](Cc1ccc(O)c(O)c1)(NN)C(=O)O [carbidopa],adverse effects,fails to elicit adverse effects
